BindingDB's records for doi:10.1021/jm00129a003 (Abbott Laboratories, 1989)

Columns and labels:
[1] = molecular target: T1, Gonadotropin-releasing hormone receptor (Rattus norvegicus, UniProt P30969); test: Dissociation constant was determined in vitro using rat pituitary membranes, at concentration 1.0*10e-5 M
T1 sequence (P30969 whole entry): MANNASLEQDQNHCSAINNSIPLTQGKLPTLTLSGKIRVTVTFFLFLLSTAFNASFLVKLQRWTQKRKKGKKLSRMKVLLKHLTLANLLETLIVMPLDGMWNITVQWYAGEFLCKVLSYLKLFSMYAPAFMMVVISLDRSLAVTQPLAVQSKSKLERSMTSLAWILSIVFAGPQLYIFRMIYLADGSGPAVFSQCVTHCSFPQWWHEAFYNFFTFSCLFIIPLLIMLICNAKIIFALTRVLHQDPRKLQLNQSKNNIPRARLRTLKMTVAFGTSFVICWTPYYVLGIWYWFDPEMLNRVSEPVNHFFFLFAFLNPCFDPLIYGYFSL

[2] = molecular target: T1, Gonadotropin-releasing hormone receptor; test: Dissociation constant was determined in vitro using rat pituitary membranes and [125I]-leuprolide as radioligand, at concentration 3.16*10e-6 M

Q: For `CC(=O)N1CCN(c2ccc(OC[C@@H]3CO[C@@](Cn4ccnc4)(c4ccc(Cl)cc4Cl)O3)cc2)CC1` [Nizoral], which Kd [1] is on record?
A: 0.375 µM

Q: What about the Kd [2] of the same compound?
A: 0.221 µM
